Experimental data reported in patent US11608367B2, “Peptides for angiogenic therapy” (The Regents of the University of California, priority 2018, dated 2023).

How the values were obtained:
[1] = tested on: U87-MG cells; assay: Caspase-Glo 3/7 apoptotic assay; assay type: cell-based, human; conditions: cut-off value at 20 over scrambled control with P Value <0.05%
Method: Caspase-Glo® 3/7 assays (Promega) were performed according to the manufacturer's protocol. Briefly, 15,000-20,000 cells were seeded in a 96 well white flat bottom plate. The peptide constructs were transfected in triplicates using Lipofectamine 3000. Twenty four hour post-transfection, the cells were equilibrated at room temperature and Caspase-Glo® 3/7 reagent was dispensed into each well and the luminescent signal was measured 30-60 mins incubation at room temperature. The blank reaction was used to measure background luminescence associated with the cell culture system and Caspase-Glo® 3/7 Reagent alone. The value for the blank reaction was subtracted from experimental values to obtain the relative luminescence values (RLU). The percentage change over the Scrambled control was calculated from the mean as follows: [(Mean peptide RLU-Mean Scr RLU)/Scr RLU*100]. The P value was calculated using the Student t Test.
The efficacy of the 25 disclosed peptides to cause apoptosis in the U87-MG cells was measured using Caspase-Glo® 3/7 Assay. For each of the peptides, the percentage change over the scrambled control was tabulated and a cut-off value at 20 with a P Value of <0.05%.

[2] = Effectiveness of ADPs (Example 1, Table 6; cell death assays of FIGS. 10-13); assay type: cell-based; conditions: ADPs with N-terminal tumor penetrating peptide and C-terminal fluorescent tag; graded in words
Excerpt: FIGS. 10A-C show the sequences mapped, peptide blots, imaging to show expression and cell death assays for these three peptides. A) PPA-1 (PEPTIDE23) (SEQ ID NO:23), B) PPA4 (PEPTIDE19) (SEQ ID NO:19), C) PPA10 (PEPTIDE16 including FF at C-terminus) (SEQ ID NO:16).
FIGS. 11A-B show the sequences mapped, peptide blots, imaging to show expression and cell death assays for these HSP-70 peptides. A) PHA4 (PEPTIDE5) (SEQ ID NO:5), B) PHA5 (PEPTIDE13 plus C-terminal L) (SEQ IDS NO: 13).
FIGS. 12A-C show the sequences mapped, peptide blots, imaging to show expression and cell death assays for these p65 (RELA) peptides. A) PRA1 (PEPTIDE14) (SEQ ID NO:14), B) PRA8 (PEPTIDE8) (SEQ ID NO:8), C) PRA9 (SEQ ID Nos:33 and 37-45).
FIGS. 13A-D show the sequences mapped, peptide blots, imaging to show expression and cell death assays for these HSP-70 peptides. A) PAA1-1 (PEPTIDE11) (SEQ ID NO:11), B) PPA1-3 (PEPTIDE15) (SEQ ID NO:15), C) PAR1 (PEPTIDE19), D) Paint 1 (PEPTIDE7) (SEQ ID NO:7).
ADPs were first identified using Peptide SPOT analysis. Peptides were identified from AKIP1. PKAc, HSP-70 and p65 sequences. The identified ADPs were attached at the N-terminus to tumor penetrating peptide based on the CENDR rule (FIG. 9). A fluorescent tag was attached to the C-terminus for ease of visualization.
To test these ADPs, CRISPR based AKIP1 knock-out cell lines were generated in HEK 293 and glioblastoma cell lines. Further, all the isoforms of AKIP1 were reintroduced into the AKIP1 knock-out glioblastoma cell lines.

[3] = tested on: cancer, cardiac and neuronal cell lines; assay: Categorisation of active ADPs as pro-/anti-apoptotic (Example 15); conditions: criteria of Example 15
[4] = tested on: cancer, cardiac and neuronal cell lines; assay: as above; conditions: depending on cell type
Excerpt: 2) improved cell viability in cardiac or neuronal cell lines and decreased viability in at least 2 cancer cell lines.

Row | Sequence | Effectiveness [2] | Pro-apoptotic (anti-angiogenic) category [3] | further results
1 | STDPAVFTDLASVDNSEFQQLLNQG [PEPTIDE25] | – | – | apoptosis in U87-MG cells (in words) [1]: very low apoptosis
2 | DIGNGQRKDRKKTSLGPGGSYQISEHA [PEPTIDE5] | High | Pro-apoptotic (anti-angiogenic) | –
3 | DNCLAAAALNGVDRRSLQRSAKLALEVLERAKRR [PAint] | Moderate | – | –
4 | DWWALGVLIYEMAAGYPP [PEPTIDE17] | – | Pro-apoptotic (anti-angiogenic) | –
5 | SHFSEHTALWDRSMKEFLAKAKEDFLKK [PEPTIDE10] | – | Pro-apoptotic (anti-angiogenic) | both pro and anti-apoptotic effect [4]: both pro and anti-apoptotic effect; anti-apoptotic (pro-angiogenic) category [3]: anti-apoptotic (pro-angiogenic)
6 | IMQDKLEKERNDAKNAVEEYVYEMRDKLSGEYEKFVSEDDRNSFTLKLEDTENWL [PHA 5, PEPTIDE13 without the C-terminal Y] | High | – | –
7 | RKDRKKTSLGPGGSYQISEHAPEASQP [PEPTIDE2] | – | Pro-apoptotic (anti-angiogenic) | –
8 | REERPPTLSASFRTMAEFMDYTSSQCG [PEPTIDE1] | – | Pro-apoptotic (anti-angiogenic) | –
9 | VTVGSNDLTKKTHVVAVDSGQSVDLVFPV [PEPTIDE4] | – | Pro-apoptotic (anti-angiogenic) | both pro and anti-apoptotic effect [4]: both pro and anti-apoptotic effect; anti-apoptotic (pro-angiogenic) category [3]: anti-apoptotic (pro-angiogenic)
10 | VKKRDLEQAISQRIQTNNNPFQVPIEEQRGDYDLNAVR [PEPTIDE8] | Moderate | Pro-apoptotic (anti-angiogenic) | both pro and anti-apoptotic effect [4]: both pro and anti-apoptotic effect; anti-apoptotic (pro-angiogenic) category [3]: anti-apoptotic (pro-angiogenic)
11 | DNCLAAAALNGVDRRSLQRSARLALEVLERAKR [PEPTIDE12] | – | – | anti-apoptotic (pro-angiogenic) category [3]: anti-apoptotic (pro-angiogenic)
12 | LNGVDRRSLQRSARLALEVLERAK [PEPTIDE11] | High | Pro-apoptotic (anti-angiogenic) | both pro and anti-apoptotic effect [4]: both pro and anti-apoptotic effect; anti-apoptotic (pro-angiogenic) category [3]: anti-apoptotic (pro-angiogenic)
13 | VKKRDLEQAISQRIQTNNN [PEPTIDE18] | – | Pro-apoptotic (anti-angiogenic) | –
14 | IMQDKLEKERNDAKNAVEEYVYEMRDKLSGEYEKFVSEDDRNSFTLKLEDTENWLY [PEPTIDE13] | – | Pro-apoptotic (anti-angiogenic) | –
15 | RRAVDWHALERPKGCMGVLAREAPHLEKQPAAGPQRVLPGE [PEPTIDE3] | – | Pro-apoptotic (anti-angiogenic) | –
16 | FTDLASVONSEFQQLLNQ (FTDLASVDNSEFQQLLNQ) [PEPTIDE24] | – | – | apoptosis in U87-MG cells (in words) [1]: very low apoptosis
17 | GGSYQISEHAPEASQPAENISKDLYIEVYPGTYS [PEPTIDE7] | Low | Pro-apoptotic (anti-angiogenic) | –
18 | KYYSSVPEEGGATHVYRYHRGESKLHM [PEPTIDE9] | High | Pro-apoptotic (anti-angiogenic) | –
19 | PLIFPAEPAQASGPYVEIIEQPKQ [PEPTIDE14] | High | Pro-apoptotic (anti-angiogenic) | –
